Our source for the EC50 and melting point values is patent US10584115B2, “Substituted pyridine and pyrazine BMI-1 inhibitors” (PTC Therapeutics, Inc., priority 2013, dated 2020).

In general, EC50 refers to the concentration that produces a half-maximal response. For orientation: melting point means the temperature of the solid-liquid transition.

Like-named read-outs stand apart in the source and are kept apart here.

One data set relates to Bmi-1 protein. Put plainly: Sandwich ELISA Assay (Bmi-1 protein level in HT-1080 cells after compound treatment). The class given is cell-based. Summed up:
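Sandwich ELISA quantified Bmi-1 protein against recombinant standard (125–8000 pg/mL), with lysates captured overnight at 4 °C and signal by HRP/TMB at 450 nm (570 nm reference). Lysates came from HT-1080 cells incubated 40–48 h with test compounds in 0.5% DMSO.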
In general terms: In an ELISA, binding on a coated surface is turned into a signal by an enzyme label.

[1] abbreviates: Table 1, Bmi-1 sandwich ELISA, read-out: ELISA EC50 value for Bmi-1 protein.
[2] abbreviates: read-out: ELISA EC50 value for Bmi-1 protein, Table 1, Bmi-1 sandwich ELISA.

Compound `Fc1ccc2c(c1)nc(C1CC1)n2-c1cncc(Nc2ccc(OC(F)F)cc2)n1` [compound 227, 6-(2-cyclopropyl-5-fluoro-1H-benzimidazol-1-yl)-N-[4-(difluoromethoxy)phenyl]pyrazin-2-amine] registered a melting point of 188 to 190 °C. For the same compound, the EC50 with Bmi-1 protein (setting [1]) lay in the range of 10 to 100 nM.
Compound `Cc1nc2ccc(F)cc2n1-c1cncc(Nc2ccc(C(F)(F)F)cc2)n1` [compound 228, 6-(6-fluoro-2-methyl-1H-benzimidazol-1-yl)-N-[4-(trifluoromethyl)phenyl]pyrazin-2-amine] registered a melting point of 243 to 245 °C. Also, the 50% effective concentration (EC50) in the data set on Bmi-1 protein (setting [2]) lay in the range of 1 to 10 nM.
`Cc1nc2ccc(F)cc2n1-c1cncc(Nc2ccc(OC(F)F)cc2)n1` [compound 229, N-[4-(difluoromethoxy)phenyl]-6-(6-fluoro-2-methyl-1H-benzimidazol-1-yl)pyrazin-2-amine] gave a melting point of 200 to 202 °C. Also, in the data set on Bmi-1 protein (setting [1]), the EC50 lay within 1 to 10 nM.
For `Cc1nc2ccc(F)cc2n1-c1cncc(Nc2ccc(OC(F)(F)F)cc2)n1` [compound 230, 6-(6-fluoro-2-methyl-1H-benzimidazol-1-yl)-N-[4-(trifluoromethoxy)phenyl]pyrazin-2-amine], the melting point was in the range of 215 to 217 °C. Also, in the data set on Bmi-1 protein (setting [1]), the EC50 was 10 to 100 nM.
For the compound `Cc1nc2ccc(F)cn2c1-c1cncc(Nc2ccc(C(F)(F)F)cc2)n1` [compound 244, 6-(6-fluoro-2-methylimidazo[1,2-a]pyridin-3-yl)-N-[4-(trifluoromethyl)phenyl]pyrazin-2-amine], the melting point is 160 to 162 °C. The EC50 in the data set on Bmi-1 protein (setting [1]) lay within 1 to 10 nM.
The like results for `Cc1nc2ccc(F)cn2c1-c1cncc(Nc2ccc(OC(F)F)cc2)n1` [compound 245, N-[4-(difluoromethoxy)phenyl]-6-(6-fluoro-2-methylimidazo[1,2-a]pyridin-3-yl)pyrazin-2-amine] were, in that order, 171 to 173 °C and 1 to 10 nM.
For `Cc1nc2ccc(F)cn2c1-c1cncc(Nc2ccc(OC(F)(F)F)cc2)n1` [compound 246, 6-(6-fluoro-2-methylimidazo[1,2-a]pyridin-3-yl)-N-[4-(trifluoromethoxy)phenyl]pyrazin-2-amine], the melting point lay in the range of 163 to 165 °C. Also, the EC50 with Bmi-1 protein (setting [1]) lay in the range of 1 to 10 nM.
On the same counts, the results for `Cc1nc2ccc(F)cn2c1-c1cc(C#N)cc(Nc2ccc(C(F)(F)F)cc2)n1` [compound 247, 2-(6-fluoro-2-methylimidazo[1,2-a]pyridin-3-yl)-6-{[4-(trifluoromethyl)phenyl]amino}pyridine-4-carbonitrile] are 241 to 243 °C and 1 to 10 nM.
Regarding `Cc1nc2ccc(F)cn2c1-c1cc(C#N)cc(Nc2ccc(OC(F)F)cc2)n1` [compound 248, 2-{[4-(difluoromethoxy)phenyl]amino}-6-(6-fluoro-2-methylimidazo[1,2-a]pyridin-3-yl)pyridine-4-carbonitrile], the melting point fell in the range of 221 to 223 °C. Also, the EC50 in the data set on Bmi-1 protein (setting [1]) was 1 to 10 nM.
`Cc1nc2ccc(F)cn2c1-c1cc(C#N)cc(Nc2ccc(OC(F)(F)F)cc2)n1` [compound 249, 2-(6-fluoro-2-methylimidazo[1,2-a]pyridin-3-yl)-6-{[4-(trifluoromethoxy)phenyl]amino}pyridine-4-carbonitrile] came in with a melting point of 209 to 210 °C. The EC50 in the data set with Bmi-1 protein (setting [1]) was in the range of 10 to 100 nM.
Regarding `FC(F)(F)c1ccc(Nc2cncc(-c3c(C4CC4)nc4ccc(C(F)(F)F)cn34)n2)cc1` [compound 250, 6-[2-cyclopropyl-6-(trifluoromethyl)imidazo[1,2-a]pyridin-3-yl]-N-[4-(trifluoromethyl)phenyl]pyrazin-2-amine], the melting point lay in the range of 240 to 241 °C. The EC50 with Bmi-1 protein (setting [2]) lay in the range of 10 to 100 nM.
Consider `FC(F)(F)Oc1ccc(Nc2cncc(-c3c(C4CC4)nc4ccc(C(F)(F)F)cn34)n2)cc1` [compound 252, 6-[2-cyclopropyl-6-(trifluoromethyl)imidazo[1,2-a]pyridin-3-yl]-N-[4-(trifluoromethoxy)phenyl]pyrazin-2-amine], for which the melting point is 213 to 215 °C. Also, in the data set on Bmi-1 protein (setting [1]), the EC50 lay within 100 to 3000 nM.
For the compound `Cc1nn(CC(F)(F)F)c(C)c1-c1cncc(Nc2ccc(C(F)(F)F)cc2)n1` [compound 253, 6-[3,5-dimethyl-1-(2,2,2-trifluoroethyl)-1H-pyrazol-4-yl]-N-[4-(trifluoromethyl)phenyl]pyrazin-2-amine], the melting point fell in the range of 90 to 91 °C. The EC50 in the data set on Bmi-1 protein (setting [2]) was in the range of 1 to 10 nM.
With `CCc1nc2ccc(F)cc2n1-c1cncc(Nc2ccc(C(F)(F)F)cc2)n1` [compound 259, 6-(2-ethyl-6-fluoro-1H-benzimidazol-1-yl)-N-[4-(trifluoromethyl)phenyl]pyrazin-2-amine], the melting point was 267 to 269 °C. In addition, the EC50 in the data set on Bmi-1 protein (setting [1]) was 1 to 10 nM.
Consider `CCc1nc2ccc(F)cc2n1-c1cncc(Nc2ccc(OC(F)F)cc2)n1` [compound 260, N-[4-(difluoromethoxy)phenyl]-6-(2-ethyl-6-fluoro-1H-benzimidazol-1-yl)pyrazin-2-amine], for which the melting point lay within 205 to 207 °C. In addition, the EC50 with Bmi-1 protein (setting [1]) was in the range of 1 to 10 nM.
In the case of `Cc1nc2ccc(F)cc2n1-c1cc(C#N)cc(Nc2ccc(C(F)(F)F)cc2)n1` [compound 261, 2-(6-fluoro-2-methyl-1H-benzimidazol-1-yl)-6-{[4-(trifluoromethyl)phenyl]amino}pyridine-4-carbonitrile], the melting point lay in the range of 223 to 225 °C. The EC50 in the data set on Bmi-1 protein (setting [1]) fell in the range of 10 to 100 nM.
On the same counts, the results for `Cc1nc2ccc(F)cc2n1-c1cc(C#N)cc(Nc2ccc(OC(F)F)cc2)n1` [compound 262, 2-{[4-(difluoromethoxy)phenyl]amino}-6-(6-fluoro-2-methyl-1H-benzimidazol-1-yl)pyridine-4-carbonitrile] are 231 to 232 °C and 10 to 100 nM.
`Cc1nn(C)c(C)c1-c1cc(C#N)cc(Nc2ccc(C(F)(F)F)cc2)n1` [compound 263, 2-{[4-(trifluoromethyl)phenyl]amino}-6-(1,3,5-trimethyl-1H-pyrazol-4-yl)pyridine-4-carbonitrile] displayed a melting point of 182 to 183 °C. Moreover, the EC50 with Bmi-1 protein (setting [1]) was in the range of 1 to 10 nM.
Turning to `Cc1nn(C)c(C)c1-c1cc(C#N)cc(Nc2ccc(OC(F)F)cc2)n1` [compound 264, 2-{[4-(difluoromethoxy)phenyl]amino}-6-(1,3,5-trimethyl-1H-pyrazol-4-yl)pyridine-4-carbonitrile], the melting point is 144 to 145 °C. Also, the EC50 with Bmi-1 protein (setting [1]) fell in the range of 1 to 10 nM.
On the same counts, the results for `Cc1nn(C)c(C)c1-c1cc(C#N)cc(Nc2ccc(OC(F)(F)F)cc2)n1` [compound 265, 2-{[4-(trifluoromethoxy)phenyl]amino}-6-(1,3,5-trimethyl-1H-pyrazol-4-yl)pyridine-4-carbonitrile] are 135 to 136 °C and 10 to 100 nM.
The like results for `CC(=O)n1nc(C)c(-c2cncc(Nc3ccc(C(F)(F)F)cc3)n2)c1C` [compound 277, 1-[3,5-dimethyl-4-(6-{[4-(trifluoromethyl)phenyl]amino}pyrazin-2-yl)-1H-pyrazol-1-yl]ethanone] were, in that order, 199 to 200 °C and 100 to 3000 nM.
Regarding `CCOC(=O)n1nc(C)c(-c2cncc(Nc3ccc(C(F)(F)F)cc3)n2)c1C` [compound 278, ethyl 3,5-dimethyl-4-(6-{[4-(trifluoromethyl)phenyl]amino}pyrazin-2-yl)-1H-pyrazole-1-carboxylate], the melting point was in the range of 122 to 123 °C. Further, in the data set on Bmi-1 protein (setting [1]), the EC50 lay in the range of 100 to 3000 nM.
